This is an account of results in patent publication US8551541B2, “Disinfectant making air fresh and preparation and method and use thereof” (priority 2009, dated 2013).

This assay relates to influenza A virus FM1 strain. The assay is classed as cell-based.

For the compound `NC(=O)c1ncn([C@@H]2O[C@H](CO)[C@@H](O)[C@H]2O)n1` [Ribavirin], the “inhibitory effect on FM1 (in words)” value is “markedly inhibitory effect”.
